Assay [1] concerns α2 receptors. The assay is described as follows: Ligand binding screen at 10 μM.
Assay [2] concerns the target D25 receptors (Homo sapiens, UniProt P14416). Put plainly: Ligand binding screen at 10 μM.
Assay [3] relates to spontaneous activity. The assay is described as follows: Spontaneous locomotion. The format is in vivo, Non-Swiss Albino (NSA) mice. As to conditions: 10 mg/kg s.c.; maintained for 120 minutes.
Assay [4] has as its target T1, α1A (Alpha 1A) adrenergic receptor (Homo sapiens, UniProt P35348).
T1 sequence (P35348 1-466): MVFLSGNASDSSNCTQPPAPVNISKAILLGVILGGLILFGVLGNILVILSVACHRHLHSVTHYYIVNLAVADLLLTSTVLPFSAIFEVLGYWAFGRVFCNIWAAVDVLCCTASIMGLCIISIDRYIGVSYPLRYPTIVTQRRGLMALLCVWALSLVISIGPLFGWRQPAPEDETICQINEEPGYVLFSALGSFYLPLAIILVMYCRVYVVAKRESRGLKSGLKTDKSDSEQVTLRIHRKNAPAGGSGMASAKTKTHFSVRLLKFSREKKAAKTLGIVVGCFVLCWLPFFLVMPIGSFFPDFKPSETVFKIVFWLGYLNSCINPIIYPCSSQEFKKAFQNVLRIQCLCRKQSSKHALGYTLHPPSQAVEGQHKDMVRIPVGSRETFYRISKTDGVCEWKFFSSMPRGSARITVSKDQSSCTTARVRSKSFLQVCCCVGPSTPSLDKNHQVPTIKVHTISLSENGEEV
Put plainly: cell-based.

SMILES strings stand for the structures.

A word on the inhibition: it is how much of the control response was suppressed. Low values mean little suppression, high ones strong suppression. For orientation: Ki means the equilibrium dissociation constant of an inhibitor or competing ligand from its target. A higher Ki goes with lower affinity.

D25 receptors, sequence (P14416 1-414 isoform P14416-2): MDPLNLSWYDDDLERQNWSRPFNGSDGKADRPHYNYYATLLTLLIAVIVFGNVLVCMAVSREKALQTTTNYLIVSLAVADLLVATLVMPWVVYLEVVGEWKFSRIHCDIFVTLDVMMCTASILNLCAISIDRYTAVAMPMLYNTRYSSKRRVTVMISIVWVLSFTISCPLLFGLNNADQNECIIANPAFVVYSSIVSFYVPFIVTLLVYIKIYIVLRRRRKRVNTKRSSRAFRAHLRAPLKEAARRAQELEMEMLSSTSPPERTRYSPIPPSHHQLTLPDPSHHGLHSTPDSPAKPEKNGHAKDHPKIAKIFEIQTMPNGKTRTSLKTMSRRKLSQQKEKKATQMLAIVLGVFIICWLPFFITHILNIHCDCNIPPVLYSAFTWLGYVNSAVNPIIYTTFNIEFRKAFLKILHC

Regarding `Clc1ccc2c(c1)N=C(N1CCNCC1)c1ccccc1N2` [NDMC, 8-chloro-11-(1-piperazinyl)-5H-dibenzo [b,e][1,4] diazepine], the “inhibition of binding, α2” value in assay [1] is listed as not below 90%. The inhibition at 10 µM in assay [2] was not below 90%. Also, in assay [3], the “time of maximal reduction of spontaneous activity” value was 30 min. Moreover, the Ki in assay [4] is 50.1 nM.

These data come from patent US20050085463A1 (priority 2003, published 2005).
